Values joined by “and” are separate entries in the source; they are usually repeats but may differ in a detail not shown here. Equal values may be shown once. Read-outs that look alike come from different tables or passages of the source.
Columns and labels:
[1] = tested on: NCI-H1373-luc ICA tumor model; experiment: in vivo anti-tumor efficacy, intra-carotid artery metastatic brain tumor model (bioluminescence); set-up: species or system Nu/Nu mice; settings: for T/C / TGI: day 21, from log 10 Bioluminescence
Text: The objective of this Example is to evaluate the in vivo anti-tumor efficacy of AMG510 (positive control KRAS G12C inhibitor), MRTX 849 (positive control KRAS G12C inhibitor) and HBI-2438 (a KRAS G12C inhibitor of the invention) in NCH-H1373-luc ICA, an intra-carotid artery metastatic brain tumor model, in Nu/Nu mice. HBI-2438 (the compound of Formula Ia) was supplied by Huyabio International, LLC. This intra-carotid artery model is well recognized in the art for evaluating the ability of a target compound to treat metastatic brain tumor.
All the procedures related to animal handling, care and the treatment in the study were performed according to the guidelines approved by the Institutional Animal Care and Use Committee (IACUC) of WuXi AppTec, following the guidance of the Association for Assessment and Accreditation of Laboratory Animal Care (AAALAC). At the time of routine monitoring, the animals were checked daily for tumor growth and any effects of treatments on normal behavior such as mobility, food and water consumption (by looking only), body weight gain/loss (body weights were measured twice per week), eye/hair matting and any other abnormal effect as stated in the protocol. Death and observed clinical signs were recorded on the basis of the numbers of animals within each subset.
Methods: The NCI-H1373-luc tumor cells were maintained in medium supplemented with 10% heat inactivated fetal bovine serum at 37° C. in an atmosphere of 5% CO2 in air. The tumor cells were routinely subcultured twice weekly. The cells growing in an exponential growth phase were harvested and counted for tumor inoculation. Each mouse was inoculated with NCI-H1373-luc tumor cells (0.5×10^5) in 100 μL of PBS. The animals were randomized and treatments were started when the Bioluminescence signal reached 8*10^6. After grouping, the bioluminescence measurements were taken once per week with IVIS (Lumina II).
Each mouse was inoculated with NCI-H1373-luc tumor cells (0.5×10^5) in 100 μL of PBS. The animals were randomized and treatments were started when the Bioluminescence signal reached 8*10^6. After grouping, the bioluminescence measurements were taken once per week with IVIS (Lumina II).
Tumor growth inhibition rate for test articles in the NCI-H1373-luc model was calculated based on log 10 Bioluminescence measurement at day 21 after the start of treatment, as shown in Table 3.

[2] = tested on: colorectal cancer xenograft model CR2528; experiment: in vivo therapeutic efficacy, subcutaneous HuPrime colorectal cancer xenograft model (tumor volume); set-up: species or system female BALB/c Nude mice; settings: Day 20
Protocol: The above test articles were administered as single agent or in specific combination settings as described in Table 4. […] HBI-2438 and HBI-2376 (the compound of Formula Ia and the compound of Formula IIa, respectively) were supplied by Huyabio International, LLC.
(c) Tumor Inoculation: Tumor fragments from stock mice were harvested and used for inoculation into mice. Each mouse was inoculated subcutaneously in the right flank with CR2528 model tumor fragment (2-3 mm in diameter) for tumor development on May 25, 2022.
(d) Randomization: The randomization started when the mean tumor size reached 160 mm^3. 99 mice were enrolled in the study. All animals were randomly allocated to 11 study groups, 9 mice in each group. Randomization was performed based on “Matched distribution” method/“Stratified” method (StudyDirector™ software, version 3.1.399.19)/randomized block design. The date of randomization was denoted as day 0 (Jun. 13, 2022).
(§1) Tumor volumes were measured twice per week after randomization in two dimensions using a caliper, and the volume was expressed in mm^3 using the formula: “V=(L×W×W)/2, where V is tumor volume, L is tumor length (the longest tumor dimension) and W is tumor width (the longest tumor dimension perpendicular to L). Dosing as well as tumor and body weight measurements were conducted in a Laminar Flow Cabinet. The body weights and tumor volumes were measured by using StudyDirector™ software (version 3.1.399.19).
The treatments on both primary and secondary studies were performed for 3 weeks. The primary study was terminated on Day 21 with plasma and tumor samples collection. For secondary analysis tumor samples were collected after the final dose and were transferred in a sterile tube, to be frozen into liquid nitrogen. All the frozen tumor samples were stored in −80° C.

[3] = format: in vivo; settings: for BW change: Day 20 vs Day 0
Protocol: Observation and Data Collection: After tumor cells inoculation, the animals were checked daily for morbidity and mortality. During routine monitoring, the animals were checked for any effects of tumor growth and treatments on behavior such as mobility, food and water consumption, body weight gain/loss (body weights were measured twice per week after randomization), eye/hair matting and any other abnormalities. Mortality and observed clinical signs were recorded for individual animals in detail.
as §1

[4] = 30 mg/kg PO QD, day 0 after start of treatment

SMILES: C=CC(=O)N1CCN(c2nc(=O)n(-c3c(C)ccnc3C(C)C)c3nc(-c4c(O)cccc4F)c(F)cc23)[C@@H](C)C1 [AMG-510, reference compound]
- log 10 Bioluminescence (mean ± SEM) [1, 4]: 6.86 ± 0.09
- log 10 Bioluminescence (mean ± SEM) ([1]; 30 mg/kg PO QD, day 7): 6.12 ± 0.06
- log 10 Bioluminescence (mean ± SEM) ([1]; 30 mg/kg PO QD, day 14): 6.32 ± 0.25
- log 10 Bioluminescence (mean ± SEM) ([1]; 30 mg/kg PO QD, day 21): 6.69 and 6.69 ± 0.3
- T/C ([1]; 30 mg/kg PO QD): 79.3%
- TGI ([1]; 30 mg/kg PO QD): 111.5%

SMILES: C[C@@H]1OCC2(CCN(c3cnc(Sc4ccnc(N)c4Cl)c(N)n3)CC2)[C@@H]1N [TNO-155, reference compound]
- T/C ([2]; 5 mg/kg QD): 53.02%
- TGI ([2]; 5 mg/kg QD): 46.98%
- Tumor Volume (mean ± SEM) ([2]; 5 mg/kg QD): 916.21 ± 100.32 mm^3

SMILES: C[C@@H]1OCC2(CCN(c3cnc(Sc4cccc(NC(=O)c5c(O)nc6n(c5=O)CCCC6)c4Cl)cn3)CC2)[C@@H]1N [HBI-2376, N-(3-((5-((3S,4S)-4-amino-3-methyl-2-oxa-8-azaspiro[4.5]decan-8-yl)pyrazin-2-yl)thio)-2-chlorophenyl)-2-hydroxy-4-oxo-6,7,8,9-tetrahydro-4H-pyrido[1,2-a]pyrimidine-3-carboxamide]
- T/C ([2]; 5 mg/kg QD): 27.18%
- TGI ([2]; 5 mg/kg QD): 72.82%
- Tumor Volume (mean ± SEM) ([2]; 5 mg/kg QD): 469.69 ± 81.71 mm^3
- Day 0 BW (mean ± SEM) ([3]; 5 mg/kg QD): 22.79 ± 0.69
- Day 20 BW (mean ± SEM) ([3]; 5 mg/kg QD): 22.03 ± 1.05
- BW change ([3]; 5 mg/kg QD): −3.36%
- Maximum mean BWL ([3]; 5 mg/kg QD, on Day 20): −3.36% on

SMILES: C=C(F)C(=O)N1CCN(c2nc(OC[C@@H]3CCCN3C)nc3c2CCN(c2cccc4cccc(Cl)c24)C3)C[C@@H]1CC#N [MRTX849, reference compound]
- log 10 Bioluminescence (mean ± SEM) [1, 4]: 6.83 ± 0.14
- log 10 Bioluminescence (mean ± SEM) ([1]; 30 mg/kg PO QD, day 7): 6.38 ± 0.21
- log 10 Bioluminescence (mean ± SEM) ([1]; 30 mg/kg PO QD, day 14): 6.24 ± 0.18
- log 10 Bioluminescence (mean ± SEM) ([1]; 30 mg/kg PO QD, day 21): 6.01 and 6.01 ± 0.14
- T/C ([1]; 30 mg/kg PO QD): 71.3%
- TGI ([1]; 30 mg/kg PO QD): 152.6%
- T/C ([2]; 100 mg/kg QD): 41.56%
- TGI ([2]; 100 mg/kg QD): 58.44%
- Tumor Volume (mean ± SEM) ([2]; 100 mg/kg QD): 718.22 ± 151.89 mm^3

SMILES: C=CC(=O)N1C[C@@H]2C(=O)N(CCN(C)C)c3c(c4cc(Cl)c(-c5c(O)cccc5F)nc4n(-c4c(C)ccnc4C(C)C)c3=O)N2C[C@H]1C [HBI-2438]
- log 10 Bioluminescence (mean ± SEM) ([1]; 15 mg/kg PO QD, day 0 after start of treatment): 6.86 ± 0.11
- log 10 Bioluminescence (mean ± SEM) ([1]; 15 mg/kg PO QD, day 7): 6.49 ± 0.14
- log 10 Bioluminescence (mean ± SEM) ([1]; 15 mg/kg PO QD, day 14): 6.44 ± 0.2
- log 10 Bioluminescence (mean ± SEM) ([1]; 15 mg/kg PO QD, day 21): 6.58 and 6.58 ± 0.21
- T/C ([1]; 15 mg/kg PO QD): 78.1%
- TGI ([1]; 15 mg/kg PO QD): 118.2%
- log 10 Bioluminescence (mean ± SEM) [1, 4]: 6.86 ± 0.1
- log 10 Bioluminescence (mean ± SEM) ([1]; 30 mg/kg PO QD, day 7): 6.09 ± 0.07
- log 10 Bioluminescence (mean ± SEM) ([1]; 30 mg/kg PO QD, day 14): 5.86 ± 0.12
- log 10 Bioluminescence (mean ± SEM) ([1]; 30 mg/kg PO QD, day 21): 6.00 and 6.00 ± 0.13
- T/C ([1]; 30 mg/kg PO QD): 71.2%
- TGI ([1]; 30 mg/kg PO QD): 155.8%
- log 10 Bioluminescence (mean ± SEM) ([1]; 100 mg/kg PO QD, day 0 after start of treatment): 6.86 ± 0.11
- log 10 Bioluminescence (mean ± SEM) ([1]; 100 mg/kg PO QD, day 7): 5.92 ± 0.09
- log 10 Bioluminescence (mean ± SEM) ([1]; 100 mg/kg PO QD, day 14): 6.04 ± 0.2
- log 10 Bioluminescence (mean ± SEM) ([1]; 100 mg/kg PO QD, day 21): 6.09 and 6.09 ± 0.24
- T/C ([1]; 100 mg/kg PO QD): 72.2%
- TGI ([1]; 100 mg/kg PO QD): 150.0%
- T/C ([2]; 10 mg/kg QD): 84.37%
- TGI ([2]; 10 mg/kg QD): 15.63%
- Tumor Volume (mean ± SEM) ([2]; 10 mg/kg QD): 1458.01 ± 164.19 mm^3
- T/C ([2]; 30 mg/kg QD): 52.41%
- TGI ([2]; 30 mg/kg QD): 47.59%
- Tumor Volume (mean ± SEM) ([2]; 30 mg/kg QD): 905.6 ± 108.46 mm^3
- T/C ([2]; 100 mg/kg QD): 43.69%
- TGI ([2]; 100 mg/kg QD): 56.31%
- Tumor Volume (mean ± SEM) ([2]; 100 mg/kg QD): 754.97 ± 98 mm^3
- Day 0 BW (mean ± SEM) ([3]; 10 mg/kg QD): 22.32 ± 0.57
- Day 20 BW (mean ± SEM) ([3]; 10 mg/kg QD): 22.19 ± 0.81
- BW change ([3]; 10 mg/kg QD): −0.62%
- Maximum mean BWL ([3]; 10 mg/kg QD, on Day 20): −0.62% on
- Maximum mean BWL ([3]; 30 mg/kg QD): No BWL
- Day 0 BW (mean ± SEM) ([3]; 30 mg/kg QD): 22.54 ± 0.61
- Day 20 BW (mean ± SEM) ([3]; 30 mg/kg QD): 23.89 ± 0.58
- BW change ([3]; 30 mg/kg QD): 6.12%
- Maximum mean BWL ([3]; 100 mg/kg QD): No BWL
- Day 0 BW (mean ± SEM) ([3]; 100 mg/kg QD): 21.91 ± 0.57
- Day 20 BW (mean ± SEM) ([3]; 100 mg/kg QD): 22.31 ± 0.71
- BW change ([3]; 100 mg/kg QD): 1.86%

Reference: patent publication US20240252490A1, “Combination Therapies Comprising Kras Inhibitors and SPH2 Inhibitors” (HUYABIO International, LLC, priority 2022, published 2024)
